According to patent US11028074B2, “CD73 inhibitors” (Eli Lilly and Company, priority 2018, dated 2021):

Legend:
CD73 [1] = biological target: T1, CD73 (Homo sapiens, UniProt P21589); test: LC/MS Based Assay for Measuring CD73 Activity in Human Serum; type: biochemical; set-up: from tissue; host or cells: normal human serum; conditions: concentrations corrected with the fraction unbound, read-out: EC50, inhibition of CD73 activity in human serum
T1 sequence (P21589 27-549): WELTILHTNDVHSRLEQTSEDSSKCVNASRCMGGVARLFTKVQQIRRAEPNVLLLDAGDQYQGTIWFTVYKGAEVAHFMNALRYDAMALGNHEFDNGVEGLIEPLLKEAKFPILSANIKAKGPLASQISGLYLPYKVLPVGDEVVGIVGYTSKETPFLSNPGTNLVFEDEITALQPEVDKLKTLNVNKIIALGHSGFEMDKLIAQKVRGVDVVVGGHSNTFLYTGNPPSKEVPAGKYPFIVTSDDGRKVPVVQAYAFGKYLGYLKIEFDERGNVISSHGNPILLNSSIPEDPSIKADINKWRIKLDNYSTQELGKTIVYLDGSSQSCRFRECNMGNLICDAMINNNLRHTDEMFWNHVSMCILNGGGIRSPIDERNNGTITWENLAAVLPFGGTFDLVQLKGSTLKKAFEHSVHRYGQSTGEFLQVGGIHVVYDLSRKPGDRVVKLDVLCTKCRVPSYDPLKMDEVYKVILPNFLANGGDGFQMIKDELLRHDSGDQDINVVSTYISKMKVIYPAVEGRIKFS
Procedure: Fresh normal human blood is centrifuged at 1,500 g for 15 minutes at room temperature, and the upper fraction containing serum is collected. […] After incubation on ice for 60 min, […] (50 uM) is added to each well in the plate, and the plate is incubated at room temperature for 15 min. The plate is then placed on dry ice with addition of 200 uL/well of 17.3 TCA followed by shaking at 26 fps for 3 min with a plate-shaking machine (Qiagen). The plate is then centrifuged at 2940 g for 20 min at 4° C. […] After further centrifugation at 2940 g for 20 min at 4° C., 200 ul/well of the supernatant is used for analysis of ^13C10-^15N5-adenosine, ^13C10-^15N5-inosine and ^15N5-hypoxanthine by LC/MS as described above. For EC50 calculations, the concentrations of the CD73 inhibitor in the serum are corrected with the fraction unbound (%) derived from in silico models or experimentally.

CD73 [2] = biological target: T1, CD73; test: Calu6 Human Cell Assay; type: cell-based; conditions: Calu6 cells, 50 μM AMP premix, 60 minutes at room temperature
Procedure: The purpose of this assay is to test compounds against CD73 in a cell-based assay. […] Plates are incubated at room temperature for 60 minutes.

human CD73 [3] = biological target: T2, human CD73 (Homo sapiens, UniProt P21589); test: Human CD73 Mechanism Assay; type: biochemical; conditions: varying inhibitor and AMP concentrations 0.023 to 50 μM, mixed-model fit
T2 construct: human CD73 (amino acids 1-547); 6-His (C); made in house; host or cells: HEK293F (transient transfection)
T2 sequence (P21589 27-547): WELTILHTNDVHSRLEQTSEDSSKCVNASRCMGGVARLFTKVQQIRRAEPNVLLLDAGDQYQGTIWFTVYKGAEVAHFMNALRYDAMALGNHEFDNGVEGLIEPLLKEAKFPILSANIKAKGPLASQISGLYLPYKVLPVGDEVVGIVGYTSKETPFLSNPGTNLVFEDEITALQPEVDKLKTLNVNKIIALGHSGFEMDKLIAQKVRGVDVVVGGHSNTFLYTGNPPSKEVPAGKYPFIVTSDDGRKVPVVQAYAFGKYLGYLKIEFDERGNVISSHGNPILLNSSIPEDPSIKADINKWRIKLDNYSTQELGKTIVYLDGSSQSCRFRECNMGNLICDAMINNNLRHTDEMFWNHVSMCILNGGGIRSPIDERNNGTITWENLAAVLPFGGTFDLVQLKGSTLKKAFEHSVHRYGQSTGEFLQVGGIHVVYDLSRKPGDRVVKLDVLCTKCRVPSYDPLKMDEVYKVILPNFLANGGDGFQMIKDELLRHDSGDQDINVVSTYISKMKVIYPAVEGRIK

human CD73 [4] = biological target: T2, human CD73; test: Human CD73 Biochemical Assay; conditions: 2 μM AMP, 50 pM CD73 protein, 30 minutes at RT
Procedure: An Agilent 300 RapidFire automated extraction system (Agilent, Santa Clara, Calif.) is used with three HPLC quaternary pumps, coupled to an Sciex 6500 triple quadrupole mass spectrometer (AB Sciex, Framingham, Mass.) with an electrospray ionization (ESI) interface source.
Solvent A, used for sample loading and washing, is 50 mM ammonium formate, pH 4.0 containing 5% (v/v) ACN. Solvent B, used for sample elution, is 0.3% formic acid+2% ammonium hydroxide in 70% ACN/30% MeOH. Samples are sequentially analyzed by aspirating 10 μL onto the collection loop under vacuum directly from multiwell plates.
Equip the triple quadrupole mass spectrometer with an electrospray ionization (ESI) source and monitor analytes using selected reaction monitoring (SRM) in positive mode (M+H)+. […] Calculate area ratio values for adenosine and adenosine monophosphate using 13C5 Adenosine and 15N5 AMP as internal standards, respectively.
The purpose of this assay is to identify and characterize inhibitors of CD73 enzyme activity. […] Adenosine- and adenosine ribose-^13C5 (internal standard) levels are determined utilizing mass spectrometry as described above. Use signal ratio (adenosine peak integration/adenosine internal standard peak integration) to quantitate each reaction. […] For screening purposes, test each compound at 50 μM in 1% DMSO.

[5] = test system: EG7 (lymphoma), MC38 (colon), AT-3 (breast) and B16F10 (melanoma) tumor cells; conditions: syngeneic mice injected subcutaneously with EG7, MC38, AT-3 and B16F10 tumor cells; cited from earlier work

EC50 (CD73 [1]) [nM]	IC50 (CD73 [2]) [nM]	mechanism of action (type of inhibition) (human CD73 [3])	IC50 (human CD73 [4]) [nM]	SMILES	tumor growth [5]
100	28	uncompetitive inhibitor	43	CC[C@H]1C[C@@H]1c1cc(-c2c[nH]c(=O)[nH]c2=O)nnc1C [Example 1, 5-[5-[(1S,2S)-2-Ethylcyclopropyl]-6-methyl-pyridazin-3-yl]-1H-pyrimidine-2,4-dione]	–
–	–	–	–	Nc1ncnc2c1ncn2[C@@H]1O[C@H](COP(=O)(O)CP(=O)(O)O)[C@@H](O)[C@H]1O [α,β-methyleneadenosine 5′-diphosphate]	reduce tumor growth
